Reference: US9783547B2, “Water soluble 4-azapodophyllotoxin analogs” (CENTRE NATIONAL DE LA RECHERCHE SCIENTIFIQUE (CNRS), priority 2014, dated 2017)
Entries after “also recorded” stand apart in the source; their conditions may differ. Like-named read-outs stand apart in the source and are kept apart here.

What was measured:
[1] = test system: EAhy 926 endothelial cell line; assay: Endothelial cell morphology evaluation (rounding up); assay type: cell-based; conditions: Homo sapiens, EA.hy 926; 2 h incubation; rounding up of more than 15% of cells; read-out: Cmarr EA.hy 926: lowest concentration at which cell rounding up was observed
Text: To assess the effects of the compounds on the morphology of endothelial cells, the EAhy 926 endothelial cell line was used, which is derived from the fusion of human umbilical vein endothelial cells (HUVEC) with the permanent human cell line A549 (Edgell et al, Proc. Natl. Acad. Sci. U.S.A., 1983, vol 80, issue 12, 3734-3737). The EAhy 926 cell line is considered as a good representative of native HUVEC because it expresses most of the biochemical markers of parental HUVEC (Bouis et al., Angiogenesis., 2001, 4, 91-102). EAhy 926 cells were grown in DMEM containing 2 mM L-glutamine, 10% foetal bovine serum, 100 U/mL penicillin and 100 μg/mL streptomycin in a humidified atmosphere (37° C., 5% CO2). Exponentially growing EAhy 926 cells were plated onto 96 well plates at 5000 cells/100 μL/well. Twenty-four hours after plating, the medium was aspirated, and 100 μL of medium containing the test compound was added to the well containing the cells (in triplicate) and incubated for 2 h (37° C., 5% CO2). The highest concentration used was 100 μM followed by serial two-fold dilutions down to low nanomolar concentrations, if needed for the most morphologically active compounds. After the 2 h-incubation period, digital photographs were taken of representative centre areas of each well at a magnification of 100× and 200×. The results are presented as the minimum concentration that could elicit the rounding up of more than 15% of cells in a field in order to exclude normal mitotic cells which is less that 15% in control 1% DMSO treated cells. Triplicate concentrations on the same plate were routinely carried out. CA4 was included in the experiments as a positive internal standard.
Compounds of the invention were first tested on EAhy 926 endothelial cells, which are transformed HUVEC (human umbilical vein endothelial cells). These cells undergo a rounding up upon a short 2 hour exposure to vascular disrupting agents, e.g. combretastatin A4.

[2] = test system: Eahy 926 endothelial cells (preformed cords on Matrigel); assay: Endothelial cell cords disruption assay; assay type: cell-based, human; conditions: 2 hour exposure
Experimental: Eahy 926 endothelial cells were seeded onto a Matrigel layer in 6 well plates and allowed to form microvascular structures for 48 h (cords). […] In this experiment the control solvent used was 1% DMSO final concentration, because this solvent was required to solubilize combretastatin A4 used as a positive internal control. Digital photographs of the same plate region were taken before drug application and two hours after.
Another typical effect of antivascular agents is the disruption of preformed cords of endothelial cells grown on a Matrigel layer.

SF268 = assay: Cytotoxicity assay for human cancer cells (MTS); assay type: cell-based; conditions: SF-268, SF268 brain glioma, 72 h, read-out: IC 50 value
Experimental: (§1) Human cells were grown in DMEM medium supplemented with 10% fetal calf serum (Invitrogen), in the presence of penicillin, streptomycin and amphotericin B (Fungizone) in 75 cm^2 flask under 5% CO2. Cells were plated in 96-well tissue culture microplates at a density of 650 cells/well in 200 μl medium and treated 24 h later with the compound dissolved in DMSO at concentrations ranging from 0.5-10 μM applied using an automated benchstation (Beckman Biomek 3000). Controls received the same volume of DMSO as the test wells (1% final concentration). After a 72 h exposure time, MTS reagent (Promega) was added and incubated for 3 h at 37° C. and the absorbance was read at 490 nm. Results are expressed as the inhibition of cell proliferation calculated as the ratio [(OD490 treated/OD490 control)×100].

MCF7 = assay: Cytotoxicity assay for human cancer cells (MTS); assay type: cell-based; conditions: MCF7 breast ER+ (hormone dependent), 72 h, read-out: IC 50 value
Experimental: as §1

MCF7R = assay: Cytotoxicity assay for human cancer cells (MTS); assay type: cell-based; conditions: MCF7R breast ER+ (multidrug resistant), 72 h, read-out: IC 50 value
Experimental: as §1

LnaCap = assay: Cytotoxicity assay for human cancer cells (MTS); assay type: cell-based
Experimental: as §1

MIA PaCa-2 = assay: Cytotoxicity assay for human cancer cells (MTS); assay type: cell-based; conditions: MIA PaCa-2 pancreatic carcinoma, 72 h, read-out: IC 50 value
Experimental: as §1

HT29 = assay: Cytotoxicity assay for human cancer cells (MTS); assay type: cell-based; conditions: HT-29, HT29 colorectal adenocarcinoma, 72 h, read-out: IC 50 value
Experimental: as §1

KB = assay: Cytotoxicity assay for human cancer cells (MTS); assay type: cell-based; conditions: KB epidermoid carcinoma, 72 h, read-out: IC 50 value
Experimental: as §1

A549 = assay: Cytotoxicity assay for human cancer cells (MTS); assay type: cell-based; conditions: A549 lung carcinoma, 72 h, read-out: IC 50 value
Experimental: as §1

K562 = assay: Cytotoxicity assay for human cancer cells (MTS); assay type: cell-based; conditions: K562 chronic myelogenous leukemia, 72 h, read-out: IC 50 value
Experimental: as §1

tubulin = assay: Tubulin polymerization inhibition assay (DAPI fluorescence); assay type: biochemical; conditions: tubulin 1 mg/ml, DAPI; read-out: IPT (inhibition of tubulin polymerization) IC50
Text: Fluorescence was then read at the excitation wavelength of 360 nm and emission of 450 nm.

Lewis lung carcinoma = assay: Antitumor activity in Lewis lung carcinoma bearing mice; conditions: for Drug death: deaths/animals; for Tumor Log10 cell kill: [(T − C)/3.32] × Td, Td 2.2 days
Experimental: Animal body weights included the tumor weights.
The percent T/C value is calculated as follows:

colon 26 carcinoma = assay: Antitumor activity in colon 26 carcinoma bearing mice; conditions: for Tumor Log10 cell kill: [(T − C)/3.32] × Td, Td 2 days
[3] = 50 mg/kg i.p. days 4-8 and 11-15
[4] = 55 mg/kg i.p. days 4-8 and 11-15
[5] = 55 mg/kg i.p. days 4-8 and 11-15, hydrochloride
[6] = 31 mg/kg i.p. days 4, 5, 11, 12, 14, 15
[7] = 50 mg/kg i.p. days 4, 5, 11, 12, 14, 15

Q: For `COc1cc(Nc2c3c(nc4cc5c(cc24)OCO5)CCCC3=O)cc(OC)c1OC.Cl` [SGR307.HCl, 6,7-(Methylenedioxy)-9-(3,4,5-trimethoxyphenylamino)-3,4-dihydroacridin-1(2H)-one, hydrochloride], which minimal effective concentration [1] is on record?
A: Its minimal effective concentration is 0.06 µM.

Q: What about the “Lowest concentration at which destruction of endothelial cords is observed” value [2] of the same compound?
A: Its value is 0.5 µM.

Q: And the IC50 (SF268)?
A: Its IC50 is 150 nM.

Q: And the IC50 (MCF7)?
A: The IC50 was 76 nM.

Q: And the IC50 (MCF7R)?
A: Its IC50 is 121 nM.

Q: What about the IC50 (LnaCap; LnaCap androgen-dependent prostate adenocarcinoma, value of running text, read-out: IC50) of the same compound?
A: Its IC50 is 330 to 380 nM.

Q: And the IC50 (LnaCap; LnaCap prostate adenocarcinoma (androgen dependent), 72 h, MTS, read-out: IC 50 value)?
A: The IC50 was 103 nM.

Q: What about the IC50 (MIA PaCa-2) of the same compound?
A: The IC50 was 109 nM.

Q: What about the IC50 (HT29) of the same compound?
A: The IC50 was 129 nM.

Q: What about the IC50 (KB) of the same compound?
A: The IC50 was 111 nM.

Q: And the IC50 (A549)?
A: Its IC50 is 158 nM.

Q: And the IC50 (K562)?
A: Its IC50 is 83 nM.

Q: And the IC50 (tubulin)?
A: Its IC50 is 1090 nM.

Q: And the “T − C (day), tumor growth delay” value (Lewis lung carcinoma; [3])?
A: Its value is 4.5 days.

Q: What about the “Time for median tumor to reach 500 mm^3” value (Lewis lung carcinoma; [3]) of the same compound?
A: The value was 14.1 days.

Q: And the “T/C day 18 (%)” value (Lewis lung carcinoma; [3])?
A: The value was 36.2%.

Q: What about the “Mean tumor volume (mm^3) on day 18 (range)” value (Lewis lung carcinoma; 50 mg/kg i.p. days 4-8 and 11-15, range 297-2230) of the same compound?
A: Its value is 1158 mm^3.

Q: What about the Drug death (Lewis lung carcinoma; [3]) of the same compound?
A: Its Drug death is 0/5.

Q: And the “Note (activity / toxicity assessment)” value (Lewis lung carcinoma; 50 mg/kg i.p. days 4-8 and 11-15, hydrochloride)?
A: The value was “not toxic; also recorded: highly active”.

Q: What about the “Mean body wt change [g/mouse (day of nadir)]” value (shortened to “Mean body wt change”) (Lewis lung carcinoma; 50 mg/kg i.p. days 4-8 and 11-15, nadir d6) of the same compound?
A: Its value is −0.5 (d6) g/mouse.

Q: And the “Tumor Log10 cell kill” value (Lewis lung carcinoma; 50 mg/kg i.p., hydrochloride)?
A: Its value is 3.

Q: And the “Time for median tumor to reach 500 mm^3” value (Lewis lung carcinoma; [4])?
A: Its value is 17.4 days.

Q: And the “T/C day 18 (%)” value (Lewis lung carcinoma; [4])?
A: The value was 19.3%.

Q: What about the “Mean tumor volume (mm^3) on day 18 (range)” value (Lewis lung carcinoma; 55 mg/kg i.p. days 4-8 and 11-15, range 457-806) of the same compound?
A: The value was 619 mm^3.

Q: What about the Drug death (Lewis lung carcinoma; [4]) of the same compound?
A: Its Drug death is 0/5.

Q: And the “Note (activity / toxicity assessment)” value (Lewis lung carcinoma; [5])?
A: The value was “not toxic; also recorded: highly active”.

Q: And the “T − C (day), tumor growth delay” value (Lewis lung carcinoma; [5])?
A: The value was 7.8 days.

Q: What about the “Mean body wt change” value (Lewis lung carcinoma; 55 mg/kg i.p. days 4-8 and 11-15, nadir d8) of the same compound?
A: The value was −2.4 (d8) g/mouse.

Q: And the “Tumor Log10 cell kill” value (Lewis lung carcinoma; 55 mg/kg i.p.)?
A: The value was 5.2.

Q: And the “T − C (day), tumor growth delay” value (colon 26 carcinoma; [6])?
A: Its value is 7.7 days.

Q: And the “Time for median tumor to reach 750 mg” value (colon 26 carcinoma; [6])?
A: Its value is 21.2 days.

Q: And the “% T/C day 15” value (colon 26 carcinoma; [6])?
A: The value was 15.4%.

Q: What about the “Mean tumor vol (mm^3) day 15” value (colon 26 carcinoma; [6]) of the same compound?
A: Its value is 168 mm^3.

Q: What about the “Mean body wt change” value (colon 26 carcinoma; 31 mg/kg i.p. days 4, 5, 11, 12, 14, 15, nadir d6) of the same compound?
A: The value was −0.7 g/mouse.

Q: What about the “Tumor Log10 cell kill” value (colon 26 carcinoma; 31 mg/kg i.p.) of the same compound?
A: Its value is 4.6.

Q: And the “T − C (day), tumor growth delay” value (colon 26 carcinoma; [7])?
A: The value was 13.7 days.

Q: What about the “Time for median tumor to reach 750 mg” value (colon 26 carcinoma; [7]) of the same compound?
A: The value was 27.2 days.

Q: And the “% T/C day 15” value (colon 26 carcinoma; [7])?
A: The value was 2.8%.

Q: What about the “Mean tumor vol (mm^3) day 15” value (colon 26 carcinoma; [7]) of the same compound?
A: The value was 31 mm^3.

Q: What about the “Mean body wt change” value (colon 26 carcinoma; 50 mg/kg i.p. days 4, 5, 11, 12, 14, 15, nadir d7) of the same compound?
A: Its value is −2.6 g/mouse.

Q: What about the “Tumor Log10 cell kill” value (colon 26 carcinoma; 50 mg/kg i.p.) of the same compound?
A: The value was 8.3.

Q: What about the Body weight loss (colon 26 carcinoma; 80 mg/kg i.p. days 4, 5, 11, 12, 14, 15) of the same compound?
A: Its Body weight loss is over 20%.

Q: And the “Mean body wt change” value (colon 26 carcinoma; 80.6 mg/kg i.p. days 4, 5, 11, 12, 14, 15, nadir d14)?
A: Its value is −5.4 g/mouse.
